The source of these data is ChEMBL document CHEMBL1151179, “Isolation of salicin derivatives from Homalium cochinchinensis and their antiviral activities” (J Nat Prod, 2004).

Common to all, as to format: functional, organism-based
The test system of one experiment is Human alphaherpesvirus 2. The experiment can be described thus: Antiviral activity against HSV2.
The test system of experiment [1] is Human immunodeficiency virus 1. Briefly: Antiviral activity against HIV1.
The next experiment concerns Human alphaherpesvirus 1. The experiment can be described thus: Antiviral activity against HSV1.

Some results are limits rather than exact numbers.

Take `O=C(O[C@H]1[C@H](Oc2ccccc2COC(=O)C2(O)C=CCCC2=O)O[C@H](CO)[C@@H](O)[C@@H]1O)c1ccccc1` (stereo partly specified) [TREMULACIN]: the concentration giving a half-maximal response (EC50) with Human alphaherpesvirus 2 amounted to 86 µM; in experiment [1], 52 µM; in the experiment on Human alphaherpesvirus 1 it was 87 µM.
As for `O=C(O[C@H]1[C@H](Oc2ccccc2COC(=O)[C@]2(O)C=CCC[C@@H]2O)O[C@H](CO)[C@@H](O)[C@@H]1O)c1ccccc1` [TREMULACINOL], the EC50 with Human alphaherpesvirus 2 and with Human alphaherpesvirus 1 was above 188 µM each time.
For the compound `O=c1[nH]cnc2c1ncn2[C@H]1CC[C@@H](CO)O1` [DIDANOSINE], the EC50 in experiment [1] was 2.1 µM.
Turning to `O=C(O[C@H]1[C@H](Oc2c(O)cccc2COC(=O)C2(O)C=CCCC2=O)O[C@H](CO)[C@@H](O)[C@@H]1O)c1ccccc1` (stereo partly specified) [COCHINCHISIDE B], the EC50 with Human alphaherpesvirus 2 is 76 µM; in experiment [1], above 18 µM; with Human alphaherpesvirus 1, 76 µM.
In the case of `Cc1cn([C@H]2C[C@H](N=[N+]=[N-])[C@@H](CO)O2)c(=O)[nH]c1=O` [ZIDOVUDINE], a half-maximal response in experiment [1] (EC50) required 0.02 µM.
Turning to `O=C(O[C@H]1[C@H](Oc2ccccc2CO)O[C@H](CO)[C@@H](O)[C@@H]1O)c1ccccc1` [TREMULDIN], the concentration giving a half-maximal response (EC50) with Human alphaherpesvirus 2 and with Human alphaherpesvirus 1 was above 256 µM in each case.
As to `O=C1OC2=C[C@@H](O)CCC2=C1C(O)c1ccccc1` (stereo partly specified) [COCHINOLIDE], the concentration giving a half-maximal response (EC50) with Human alphaherpesvirus 2 was 86 µM; with Human alphaherpesvirus 1 it was 31 µM.
In the same order, the values of `Nc1nc2c(ncn2COCCO)c(=O)[nH]1` [ACYCLOVIR] are 1 µM and 1.1 µM.
